Eight compounds from PubChem BioAssay (NCI) can be followed below.

“And” between values parts separate entries of the source, which are not always exact repeats. Equal values may be shown once.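 Growth conditions: 96-well plates. Treatment: test compound, 48 hours, 5 concentrations. Analysis: linear interpolation between bracketing concentrations; unreached endpoints set to highest concentration. The concentration for 50% growth inhibition is given as GI50. TGI marks complete inhibition of growth.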

Among the test systems are A498 renal; HL-60(TB) leukemia; HOP-62 NSCLC; HS 578T breast; K-562 leukemia; MALME-3M melanoma; NCI-H522 lung; OVCAR-8 ovarian; T-47D breast; UO-31 renal.
What all share (assay): NCI-60 cell line screen, 48 h

As for `NC(N)=NC(N)=Nc1cc2ccccc2c2ccccc12`, the GI50 in the assay with A498 renal is 1.39 µM; with HL-60(TB) leukemia, 10.5 µM; with HOP-62 NSCLC it was 8.53 µM; in the assay with HS 578T breast it was 11.5 µM; in the assay on K-562 leukemia it was 4.34 µM; with MALME-3M melanoma, 7.16 µM. Further, the GI50 in the assay on NCI-H522 lung is 5.66 µM; in the assay with OVCAR-8 ovarian, 5.15 µM; in the assay with T-47D breast it was 11 µM; in the assay on UO-31 renal, 5.05 µM. Also, the TGI in the assay with A498 renal was 10.1 µM; with HL-60(TB) leukemia it was 26.3 µM; with HOP-62 NSCLC it was 22.8 µM; in the assay with HS 578T breast it was 33.8 µM; in the assay on K-562 leukemia, 21.9 µM; in the assay with MALME-3M melanoma it was 22.1 µM. Further, the TGI came to 21.5 µM in the assay on NCI-H522 lung, 20.6 µM in the assay with OVCAR-8 ovarian, 29.3 µM in the assay on T-47D breast and 19.9 µM in the assay on UO-31 renal.

With `CCCCNC(=O)NS(=O)(=O)c1ccc(N2N=C(c3ccc(C)cc3C)CC2c2ccc(N(C)C)cc2)cc1` (configuration not stated), the GI50 with A498 renal is 3.9 µM; with HL-60(TB) leukemia it was 3.48 µM; in the assay on HOP-62 NSCLC, 6.86 µM; in the assay with HS 578T breast it was 3.95 µM; in the assay with K-562 leukemia it was 3.58 µM; in the assay with MALME-3M melanoma it was 3.08 µM. Besides, the GI50 in the assay on NCI-H522 lung was 3.25 µM; in the assay on OVCAR-8 ovarian, 3.68 µM; with T-47D breast, 5.16 µM; with UO-31 renal, 4.57 µM. For the same compound, the TGI is 25.9 µM with A498 renal; 13.6 µM with HL-60(TB) leukemia; > 100 µM with HOP-62 NSCLC; > 100 µM in the assay with HS 578T breast; > 100 µM in the assay on K-562 leukemia; 41.7 µM in the assay with MALME-3M melanoma. The TGI with NCI-H522 lung was 14.8 µM; with OVCAR-8 ovarian it was > 100 µM; in the assay on T-47D breast it was > 100 µM; with UO-31 renal, > 100 µM.

In the case of `Cc1cc(C2CCCCC2)n(O)c(=O)c1`, the GI50 was 7 µM in the assay with A498 renal; 0.913 µM with HOP-62 NSCLC; 46 µM in the assay on HS 578T breast; 2.66 µM with MALME-3M melanoma; 4.8 µM in the assay with NCI-H522 lung; 1.92 µM in the assay with OVCAR-8 ovarian. In addition, the GI50 is 2.63 µM with T-47D breast and 0.552 µM with UO-31 renal. For the same compound, the TGI in the assay on A498 renal was > 100 µM and 46.7 µM; in the assay with HL-60(TB) leukemia, 10.1 µM; in the assay with HOP-62 NSCLC, 40 µM; in the assay on HS 578T breast it was > 100 µM; in the assay on K-562 leukemia, > 100 µM; with MALME-3M melanoma it was > 100 µM and 49.4 µM. The TGI with NCI-H522 lung is 49.9 µM and 35.2 µM; in the assay on OVCAR-8 ovarian, > 100 µM; in the assay with T-47D breast it was > 100 µM; with UO-31 renal, > 100 µM.

Consider `COc1ccc(/C(=N/Nc2ccc([N+](=O)[O-])cc2)Sc2cc(Cl)c(C)cc2S(N)(=O)=O)cc1`, for which the GI50 in the assay with A498 renal was 0.107 µM; in the assay with HL-60(TB) leukemia it was 40.3 µM; with HOP-62 NSCLC, 5.94 µM; with HS 578T breast, 4.82 µM; in the assay on K-562 leukemia, 4.67 µM; in the assay with MALME-3M melanoma it was 3.13 µM. Also, the GI50 in the assay on NCI-H522 lung was 13.1 µM; in the assay on OVCAR-8 ovarian, 7.28 µM; in the assay with T-47D breast it was 7.16 µM; in the assay on UO-31 renal, 8.49 µM. The TGI in the assay with A498 renal was 2.68 µM; in the assay on HL-60(TB) leukemia it was > 100 µM; in the assay with HOP-62 NSCLC, 16.4 µM; with HS 578T breast, 16 µM; in the assay on K-562 leukemia, 15.4 µM; in the assay with MALME-3M melanoma, 10.1 µM. Also, the TGI in the assay with NCI-H522 lung is 38.1 µM; in the assay on OVCAR-8 ovarian, > 57 µM; with T-47D breast, 19.2 µM; in the assay on UO-31 renal it was > 41.7 µM.

For the compound `COc1cc2c3c(n(CCCBr)c(=O)c2cc1OC)-c1ccc(NC(C)=O)cc1C3=O`, the GI50 in the assay on A498 renal is 2.69 µM; with HL-60(TB) leukemia, 0.55 µM; with HOP-62 NSCLC it was 1.29 µM; in the assay with HS 578T breast, 40.6 µM; in the assay on K-562 leukemia it was 3.84 µM; in the assay with MALME-3M melanoma, 60.9 µM. The GI50 is 12.4 µM in the assay on NCI-H522 lung, 18.7 µM in the assay on OVCAR-8 ovarian, 1.84 µM in the assay with T-47D breast and 5.68 µM in the assay with UO-31 renal. Further, the TGI in the assay on A498 renal is 8.47 µM; with HL-60(TB) leukemia it was 7.78 µM; in the assay with HOP-62 NSCLC, 21.3 µM; in the assay with HS 578T breast it was > 100 µM; in the assay on K-562 leukemia, 28.3 µM; in the assay on MALME-3M melanoma, > 100 µM. Further, the TGI with NCI-H522 lung is > 100 µM; in the assay on OVCAR-8 ovarian, > 100 µM; in the assay with T-47D breast, > 100 µM; in the assay with UO-31 renal, 65 µM.

`O=C(O)c1cc(N=Nc2ccc([As](=O)(O)O)cc2)ccc1O`: the TGI in the assay on A498 renal, in the assay on HL-60(TB) leukemia, with HOP-62 NSCLC, with HS 578T breast, in the assay with K-562 leukemia and in the assay on MALME-3M melanoma was > 100 µM each time. The TGI with NCI-H522 lung, in the assay on OVCAR-8 ovarian, in the assay with T-47D breast and with UO-31 renal was > 100 µM throughout.

In the case of `CCCNC(=S)N/N=C(\C)c1ccccn1`, the GI50 in the assay with A498 renal was 0.435 µM; in the assay with HOP-62 NSCLC it was 0.517 µM; with HS 578T breast, 1.42 µM; with K-562 leukemia, 0.0153 µM; in the assay on MALME-3M melanoma it was 2.11 µM; in the assay on NCI-H522 lung, 3.22 µM. Moreover, the GI50 with OVCAR-8 ovarian is 0.0667 µM; in the assay with T-47D breast, 0.0274 µM; in the assay on UO-31 renal, 0.293 µM. The TGI with A498 renal is 4.83 µM; in the assay with HL-60(TB) leukemia it was 0.333 µM; in the assay with HOP-62 NSCLC, 17.6 µM; with HS 578T breast, > 100 µM; in the assay with K-562 leukemia it was > 100 µM; with MALME-3M melanoma, > 100 µM. The TGI with NCI-H522 lung was > 100 µM; with OVCAR-8 ovarian it was > 100 µM; in the assay with T-47D breast, > 100 µM; with UO-31 renal, > 82.8 µM.

For the compound `CC(C)(C)OC(=O)N(CCCN(CCn1c2c(c3ccccc3c1=O)C(=O)c1ccccc1-2)C(=O)OC(C)(C)C)CCn1c2c(c3ccccc3c1=O)C(=O)c1ccccc1-2`, the GI50 in the assay on A498 renal is > 50 µM; with HL-60(TB) leukemia, 14.1 µM; with HOP-62 NSCLC it was 22.3 µM; with HS 578T breast it was 41.1 µM; in the assay on K-562 leukemia, 12.4 µM; in the assay on MALME-3M melanoma, > 50 µM. Moreover, the GI50 in the assay with NCI-H522 lung is 47.6 µM; in the assay with OVCAR-8 ovarian, 34.9 µM; with T-47D breast, > 50 µM; in the assay with UO-31 renal it was > 50 µM. Moreover, the TGI is > 50 µM in the assay with A498 renal; > 50 µM with HL-60(TB) leukemia; > 50 µM with HOP-62 NSCLC; > 50 µM in the assay with HS 578T breast; 46 µM with K-562 leukemia; > 50 µM with MALME-3M melanoma. Also, the TGI in the assay on NCI-H522 lung, in the assay on OVCAR-8 ovarian, with T-47D breast and with UO-31 renal was > 50 µM in each case.
